Measurements published in patent publication US10543223B2, “Mannose derivatives useful for treating pathologies associated with adherent E. coli” (ENTEROME, priority 2015, dated 2020).
Converted amounts (≈) assume the structure as drawn.

Tests used:
[1] = Stability test in 0.1 M HCl (anomerization followed by 1H NMR); assay type: physicochemical; conditions: for isomerization to the β-mannose derivative under acidic conditions: samples at t=0, 1 h, 2 h and 8 h, 1H NMR in D2O
Procedure: Compound 6 of WO 2014/016361 was dissolved in 0.1 M HCl and sample were freeze dried at t=0, 1 h, 2 h and 8 h (see FIG. 10). […] Indeed, under the acidic conditions, an equimolar α/β mixture at T=0 anomerize to a 1/3 α/β mixture at T=8 h.

[2] = system: uropathogenic E. coli strain UTI89; assay: Hemagglutination inhibition assay, guinea pig erythrocytes, E. coli strain UTI89; assay type: cell-based; conditions: for MIC: Escherichia coli, read-out: minimal inhibitory concentration (MIC) / inhibition titer of haemagglutination; for inhibition of UTI89-induced hemagglutination (in words): FIG. 1
Procedure: Interaction of E. coli FimH adhesins with the glycocalyx of guinea pig erythrocytes forms a crosslinked network in the wells. Glycoconjugates, added in a 2-fold dilution series, prevent the agglutination reaction. The inhibition titer is defined as the lowest concentration of the glycoconjugate at which hemagglutination is still inhibited. Several strains of E. coli were grown statically overnight in LB at 37° C., washed three times in ice-cold phosphate-buffered saline, and redissolved. A 2-fold dilution of glycoconjugates with a starting concentration of 1 mM was prepared in 25 μL of PBS with 10% of DMSO. Importantly, the pipet tip was changed at every dilution step to avoid carry-over. Next, the bacterial solution (25 μL) was added to the 2-fold dilution series of the compound. Finally, 50 μL of guinea pig red blood cells, washed and diluted in the buffer to 5% of the blood volume, was added to reach 100 μL. The plates were left on ice for one night before read-out.
Inhibition of E. coli Strain UTI89 Isolated from Patient with Urinary Tract Infection.
The anti-adhesive capacity of the inhibitors was evaluated against ten E. coli strains isolated from CD patients, urinary tract infections, and hip prosthesis infections.

AIEC strain LF82 = assay: Adhesion assay of AIEC LF82 strain on intestinal epithelial cells T84 (pre- and post-incubation); assay type: cell-based, E. coli; conditions: pre-incubation (10 μM) and post-incubation (50 μM) protocols
Procedure: E. coli strain LF82 isolated from an ileal biopsy of a CD patient was used as the AIEC reference strain. Bacteria were grown overnight at 37° C. in Luria-Bertani (LB) broth, and a bacterial suspension was prepared at a concentration of 1.5×10^8 bacteria/mL in phosphate buffer saline (PBS) for adhesion assays. The human intestinal cell line T84, purchased from American Type Culture Collection (ATCC, CCL-248), was maintained in an atmosphere containing 5% CO2 at 37° C. in the culture medium recommended by ATCC. T84 cells were seeded in 48-well tissue culture plates at a density of 1.5×10^5 cells/well and incubated at 37° C. for 48 h.
AIEC reference strain LF82 was incubated for 1 h with HM or thiazole-bearing mannosides at final concentrations of 0.1, 1, or 10 μM, then bacteria/mannosides solution were incubated with T84 cells in order to have a multiplicity of infection (MOI) of 10 bacteria per cell (1.5×10^6 bacteria/well) for 3 h with. Effects of mannoside treatment were compared with HM. Monolayers were washed three times with PBS and lysed with 1% Triton X-100 (Sigma) in deionized water. Samples were diluted and plated onto LB agar plates to determine the number of colony-forming units (CFU). […]

[3] = biological target: T1, FimH lectin domain (residues 1-158) from E. coli strain UTI89 (Escherichia coli, UniProt Q1R2J4); assay: Isothermal titration calorimetry of FimH lectin domain; assay type: binding
T1 construct: FimH lectin domain (residues 1-158) from E. coli strain UTI89; made in house
Procedure: The recombinantly expressed FimH lectin domain (residues 1-158) from E. coli strain UTI89 was purified as described previously by Wellens et al. The FimH protein solution was put into the measurement cell (1452 μl) of a VP-ITC microcalorimeter (Malvern), at a concentration of 11.83 μM in the ITC working buffer (20 mM Na-Hepes at pH 7.4 and 150 mM NaCl). Compound 3c at 100 μM concentration was titrated into the FimH solution using 38 injections of 7 μl, leading to 38 heat peaks measured in μcal/sec (FIG. 12). The heat peaks were integrated (kCal/mole of injectant) to be presented in an enthalpogram with 38 data points (FIG. 12), used for the fitting to the model of one kind of binding sites (Microcal ITC Origin software) in order to derive the affinity (K) and the stoichiometry (N) of the interaction (FIG. 13). Using the constant absolute temperature (T) of the experiment, the entropic contribution ΔS was calculated (FIG. 13).

[4] = Faeces concentrations and recovery after IV and PO administration to rats; assay type: in vivo, Sprague Dawley rats; conditions: Sprague Dawley, rat, faeces, po, 10 mg/kg, PO 10 mg/kg, 0-24 h, mean of 3 rats; read-out: Recovery in faeces, mean (quantity found in faeces out of the administered quantity)
Procedure: Plasma and faeces concentrations after administration of Compound 1b and for compound 13 of WO 2014/016361 at 1 mg/kg by intravenous route and 10 mg/kg by oral route to Sprague Dawley rats Blank rat faeces are homogenized with 3 volumes of UHQ water until obtention of a paste. Then 100 μL of the homogenate are spiked with the molecules and precipitated with 300 μL of acetonitrile. The concentration ranges tested are: • 0.5 ng/mL to 1000 ng/mL for plasma, • 4 to 2000 ng/g for faeces, corresponding to 1 to 500 ng/mL of faeces homogenate. 3. In-Life Part After administration, the animals are placed in individual metabolic cages in order to collect faeces samples during 24 hours. Faeces samples are collected over the 24 hours of the experiment. They are precisely weighed and 3 volumes of UHQ water are added. The mixture is homogeneized until obtention of a paste. Then 100 μL of the homogenate are taken and extracted with 300 μL of Acetonitrile. Analysis is performed using LC-MS/MS determination according to previous analytical test results.

cystitis murine model = conditions: Wellens et al, 2008; cited from earlier work
AIEC = conditions: in vivo; cited from earlier work

CC(=O)c1cnc(N[C@H]2O[C@H](CO)[C@@H](O)[C@H](O)[C@@H]2O)s1 [6 of WO 2014/016361]
α/β mixture ratio ([1]; T=8 h, equimolar α/β mixture at T=0): 1/3
isomerization to the β-mannose derivative under acidic conditions [1]: isomerizes to the corresponding β-mannose derivative

Cc1nc(-c2cnccn2)sc1C(=O)c1cnc(NC[C@H]2O[C@H](CO)[C@@H](O)[C@H](O)[C@@H]2O)s1 [Compound 2d, 5-(4-methyl-2-(pyrazin-2-yl)thiazol-5-ylcarbonyl)-2-(((α-D-mannopyranosyl)methyl)amino)-thiazole]
MIC [2]: 3.12 µM (≈ 1.5 µg/mL)
inhibition of UTI89-induced hemagglutination (in words) [2]: potent inhibitors

CC(=O)c1cnc(SC[C@H]2O[C@H](CO)[C@@H](O)[C@H](O)[C@@H]2O)s1 [Compound 2b, 5-acetyl-2-((α-D-mannopyranos-1-yl)methylthioxy)thiazole]
potency to inhibit attachment of LF82 to T84 cells compared with heptylmannoside (AIEC strain LF82): more potent than the reference compound heptylmannoside

Cc1nc(NCc2cn(CC3OC(CO)C(O)C(O)C3O)nn2)sc1C(=O)c1cnc(NCC2OC(CO)C(O)C(O)C2O)s1 (centres unmarked) [Compound 3c]
Kd [3]: 54.6 nM
ΔH ([3]; ITC): -23.630 ± 0.3755 kcal/mol
ΔS ([3]; ITC, calculated using T of the experiment): −46.8 cal/mol/deg
n (stoichiometry) ([3]; ITC, one kind of binding sites model): 0.874+/−0.00868 sites

Cc1nc(-c2cnccn2)sc1C(=O)c1cnc(N[C@H]2O[C@H](CO)[C@@H](O)[C@H](O)[C@@H]2O)s1 [Compound 13 of WO 2014/016361, reference compound]
dose excreted [4]: 52.4%

CC(=O)c1cnc(C[C@H]2O[C@H](CO)[C@@H](O)[C@H](O)[C@@H]2O)s1 [Compound 1a, 5-acetyl-2-((α-D-mannopyranos-1-yl)methyl)thiazole]
isomerization to the β-mannose derivative under acidic conditions [1]: does not isomerize

CC(=O)c1cnc(NC[C@H]2O[C@H](CO)[C@@H](O)[C@H](O)[C@@H]2O)s1 [Compound 2c]
potency relative to HM at disrupting E. coli promoted hemagglutination ([2]; E. coli UTI89): 8 fold
MIC [2]: 0.098 µM (≈ 0.0312 µg/mL)
inhibition of UTI89-induced hemagglutination (in words) [2]: potent inhibitors

CCCCCCCO[C@H]1O[C@H](CO)[C@@H](O)[C@H](O)[C@@H]1O [HM, heptylmannose]
inhibition of UTI89-induced hemagglutination (in words) [2]: potent inhibitors
concentration required to observe a significant bacterial load reduction (cystitis murine model): millimolar
effect with AIEC in CEABAC 10 Crohn's disease model (AIEC): no effect
